Measurements: BigSolDB 2.1

CC(=O)Nc1ccc(O)cc1
solubility (mole fraction)
Details	293.2 K	298.2 K	303.2 K	308.2 K	313.2 K
in acetonitrile	0.00682	0.00805	0.00935	0.0107	0.0118
in water	0.00164	0.00202	0.00229	0.00284	0.00313
